Tests used:
[1] = system: Gram Positive Bacteria; assay: Bacterial growth testing on inoculated agar plates, nonwoven with adhesive; assay type: cell-based, gram-positive cocci similar to a Staphylococcus type; conditions: nonwoven with 3 gsm adhesive on inoculated agar plate, 35±2° C., 24 hours, observed for areas of non-growth
Method: A control mix, a mix with 0.5% triclosan, and a mix with 0.75% triclosan, were made of each product at 300° F. Each of the adhesives were applied at 300° F. to a standard 15.3 grams/m^2 (gsm) nonwoven substrate on the CT225 coater using a Nordson Control Weave applicator at 0.5 inch wide. The adhesive add-on level was 3 gsm. The pattern was fiberized. The nonwoven/adhesive was combined to release paper for easy removal for testing.
Ready-made petri plates of agar were used for this experiment. Inoculates were prepared using a barium sulfate standard for a turbidity of 150,000,000 bacteria/ml. The plates were inoculated using a sterile swab by streaking bacteria in three directions (to ensure complete coverage). A midline was drawn on each plate with a marker. To one side a piece of nonwoven (0.5×1.0″) was set on the inoculated plate. A sample of nonwoven with adhesive was positioned on the other half. The plates were incubated at 35±2° C. for 24 hours and observed for areas of non-growth. Photographs were taken using a digital camera. The following table outlines the samples tested and the results for each bacteria type.
Because triclosan is a broad-spectrum bacteriostat, it was thought that it would work on both the gram positive and the gram-negative strains. […]

[2] = cited from earlier work

## Oc1cc(Cl)ccc1Oc1ccc(Cl)cc1Cl [triclosan, 2,4,4′-trichloro-2′-hydroxy-diphenyl-ether]
[1]
  Bacterial growth, Gram Positive Bacteria: effective at inhibiting the growth
[2]
  Solubility in water: practically insoluble in water

Source: patent US6664309B2, “Antimicrobial hot melt adhesive” (priority 2000, dated 2003)
